Data as given in patent US20240109914A1, “IMIDAZOTHIAZOLE COMPOUNDS AND ANALOGS THEREOF AND METHODS FOR TREATING NEMATODE INFECTIONS IN PLANTS” (The Governing Council of The University of Toronto, priority 2021, published 2024).
Where two headings read alike, the source gives them in different places.

Columns and labels:
[1] = tested on: C. elegans; assay: C. elegans dose-response (viability, minimum lethal concentration); format: in vivo, Caenorhabditis elegans; conditions: Caenorhabditis elegans, 72 h, L1 worms, 3 days at 20° C.
Protocol: Forty microliters of an HB101 E. coli bacterial suspension in liquid NGM (nematode growth media—see ref. 42 for the recipe) was added to each well of a 96-well flat-bottom culture plate, after which approximately 25 synchronized L1 worms, in 10 μl of M9 buffer (see ref. 43 for the recipe), were added to each well. The synchronized L1 worms were obtained from an embryo preparation performed the previous day (see ref. 43 for the protocol). For the L1 assays, 0.5 μl of test compound solution (or DMSO alone) was immediately added to the wells using a multichannel pipette; the final DMSO concentration is 1% (v/v). The worms were incubated for 3 days at 20° C. and the number of viable animals was counted.
At least three biological replicates were performed for each dose-response assay. For each biological replicate, two technical replicates were performed and the numbers of viable animals for each technical replicate were combined (i.e. ˜ 50 worms assayed per concentration). The number of viable worms at each concentration was divided by the corresponding DMSO control value to give the “relative viability” for each concentration. The “relative viability” values were then averaged across the biological replicates. Minimum lethal concentration was defined as the lowest concentration at which at least 20% of worms die.

[2] = tested on: M. hapla eggs; assay: Meloidogyne hapla in vitro egg hatch assay; format: in vivo; conditions: 45 μM; for Number of Hatched Eggs: 8 days at room temperature, about 90 eggs per well, tested once; for Number of Hatched Eggs z-score: 8 days, z-score vs 8 untreated DMSO wells
Protocol: The M. hapla were originally obtained from a soil sample of muck soil from Ste-Clotilde, Quebec, Canada. Using tweezers, egg masses were carefully removed from root material from infested carrot roots. Eggs were liberated from the egg masses using a mild sodium hypochlorite bleaching protocol, whereby egg masses were bleached with a 10% commercial bleach (sodium hypochlorite) solution for 4 minutes with vigorous shaking, and then washed 5 times with deionized water. 50 μL of deionized water was added to each well of two 96-well polystyrene culture plates, and 0.5 μL of chemical (or DMSO alone) was added to each well. Approximately 90 eggs were added to each well in 49.5 ul of deionized water. The plates were sealed with parafilm and incubated for 8 days at room temperature without shaking in a Tupperware box filled with wet paper towels. After the 8-day incubation, the number of hatched eggs was counted for each treatment and for the untreated controls. Each chemical treatment was tested only once. 8 separate untreated DMSO controls were included in the experiment. The z-score for each treatment was calculated using the mean and standard deviation of the untreated DMSO control wells.

[3] = tested on: M. incognita J2 larvae; assay: Meloidogyne incognita in vitro larval mobility assay; format: in vivo; conditions: 45 μM, 4 days; for Replicate 1 z-score / Replicate 2 z-score: z-score vs untreated DMSO wells; for pest or weed control at 45 µM: Meloidogyne incognita, 96 h
Protocol: M. incognita (Kofoid & White) Chitwood Race 1 (originally isolated in Maryland) was used for all experiments, and was maintained on pepper (Capsicum annuum L.) cv. PA-136 in a greenhouse as previously described^44. Infective J2 juveniles were collected as described in ref. 45. The microwell dose-response experiments were carried out similarly to previously described protocols^44,46. In brief, 50 μL of deionized water was added to the wells of 96-well polystyrene plates and 0.5 μL of test compound (or DMSO alone) was added to each well. Approximately 35 J2s were then added to each well in 49.5 μL of deionized water. The chemicals were tested at 45 μM, and the final concentration of DMSO in each well was 0.5% (v/v). DMSO alone was added to 3 separate wells. The plates were covered with plastic adhesive strips, and the lids of the plates were sealed with parafilm. The plates were incubated at 25° C. without shaking for 4 days. The percent of worms that were immobile (% immobile) was quantified by counting the number of immobile worms after 4 days of incubation, dividing the number of immobile worms by the total number of worms in the well, and then multiplying by 100. Two replicates were performed for each treatment. The z-score for each treatment was calculated using the mean and standard deviation of the untreated DMSO control wells. The average % immobile value was calculated across the two replicates. A test compound was considered most promising if the z-score was greater than 1.645 in both replicates.

[4] = lowest concentration at which at least 20% of worms die, read-out: Minimum Lethal Concentration
[5] = same values in ppm, read-out: Minimum Lethal Concentration (ppm)
[6] = average of the two replicates, read-out: Average % Immobile
[7] = replicate 1, read-out: Replicate 1 % Immobile
[8] = replicate 2, read-out: Replicate 2 % Immobile

Row | SMILES | minimal effective concentration [1, 4] [µM] | minimal effective concentration [1, 5] [µg/mL] | Number of Hatched Eggs [2] | Number of Hatched Eggs z-score [2] | Replicate 1 z-score ([3]; replicate 1) | Replicate 2 z-score ([3]; replicate 2) | pest or weed control at 45 µM [3, 6] [%] | pest or weed control at 45 µM [3, 7] [%] | pest or weed control at 45 µM [3, 8] [%] | Number of Hatched Eggs ([2]; listed as 1-48) | Number of Hatched Eggs ([2]; listed as 1-154)
1 | Cc1c(-c2ccccc2Br)nc2sccn12 [I-39] | > 100 | > 29.3 |  |  |  |  |  |  |  |  | 
2 | Cc1csc2nc(-c3ccccc3F)cn12 [I-20] | > 100 | > 23.2 |  |  |  |  |  |  |  |  | 
3 | CCc1ccc(-c2cn3c(C)csc3n2)cc1 [I-9] | 100 | 24.2 | 2 | [3.97] |  |  |  |  |  |  | 
4 | Cc1ccc(-c2nc3sccn3c2C)cc1 [I-3] | > 100 | > 22.8 |  |  | [6.94] | [2.76] | 40.8 | 56.7 | 25 |  | 
5 | N#Cc1ccc(-c2cn3ccsc3n2)cc1 [I-87] |  |  | 3 | [3.64] | [6.98] | [9.68] | 60.1 | 56.9 | 63.3 |  | 
6 | FC(F)(F)Oc1ccc(-c2cn3ccsc3n2)cc1 [I-61] |  |  | 1 | [4.30] | [8.86] | [6.94] | 57.1 | 66 | 48.1 |  | 
7 | CCc1ccc(-c2nc3sccn3c2C)cc1 [I-8] | 50 | 12.1 |  |  |  |  |  |  |  |  | 
8 | CC(C)(C)c1ccc(-c2cn3ccsc3n2)cc1 [I-12] | 100 | 25.6 |  |  |  |  |  |  |  |  | 
9 | Brc1ccc(-c2cn3c(n2)SCC3)cc1 [I-48] |  |  | 0 | [4.63] | [15.80] | [5.11] | 69 | 100 | 38 | completely inhibited egg hatching | 
10 | Cc1ccc(-c2cn3ccsc3n2)cc1 [I-2] | 50 | 14.8 |  |  | [14.54] | [6.03] | 68.5 | 93.8 | 43.1 |  | 
11 | FC(F)Oc1ccc(-c2cn3ccsc3n2)cc1 [I-63] |  |  | 2 | [3.97] | [15.80] | [16.33] |  | 100 | 100 |  | 
12 | Clc1ccc(-c2cn3c(n2)SCC3)cc1 [I-49] |  |  | 2 | [3.97] | [15.80] | [16.33] |  | 100 | 100 |  | 
13 | COCc1nn2cc(-c3ccc(Cl)cc3)nc2s1 [I-144] |  |  | 4 | [3.31] | [4.17] | [6.85] | 45.4 | 43.1 | 47.6 |  | 
14 | Cc1ccc(-c2cn3c(C)csc3n2)cc1 [I-4] | 100 | 22.8 | 4 | [3.31] |  |  |  |  |  |  | 
15 | Cc1ccc(-c2cn3ccsc3n2)cc1C [I-6] | > 100 | > 22.8 |  |  | [4.25] | [3.22] | 35.5 | 43.5 | 27.6 |  | 
16 | Cc1csc2nc(-c3cccc(Br)c3)cn12 [I-36] | > 100 | > 29.3 |  |  |  |  |  |  |  |  | 
17 | Cc1csc2nc(-c3ccccc3Br)cn12 [I-40] | > 100 | > 29.3 |  |  |  |  |  |  |  |  | 
18 | c1ccc(-c2nc3sccn3n2)cc1 [I-116] |  |  | 2 | [3.97] | [4.40] | [2.43] | 33.7 | 44.2 | 23.2 |  | 
19 | CC(C)NC(=O)N1CC(=O)N(c2cc(Cl)cc(Cl)c2)C1=O [Iprodione, iprodione, reference compound] |  |  | 15 | [−0.33] | [−0.02] | [1.71] | 13.8 | 10.9 | 16.7 |  | 
20 | CCOc1ccc(-c2nc3sccn3c2C=O)cc1 [I-154] |  |  | 0 | [4.63] | [10.40] | [16.33] | ≥ 75 | 73.6 | 100 |  | completely inhibited egg hatching
21 | Ic1cccc(-c2cn3ccsc3n2)c1 [I-42] | 25 | 8.2 |  |  | [5.89] | [11.03] | 61.1 | 51.5 | 70.7 |  | 
22 | Nc1ccc(-c2cn3ccsc3n2)cc1 [I-44] | > 100 | > 21.5 |  |  |  |  |  |  |  |  | 
23 | Cc1ccc(-c2cn3cc(C)sc3n2)cc1 [I-5] | 25 | 5.7 |  |  |  |  |  |  |  |  | 
